“Also recorded” adds a separate entry of the source. No end group written: not given here.
Columns and labels:
Y2 [1] = settings: mammals; PYY3-36 formed by dipeptidyl peptidase IV cleavage; ref Mentlein et al., 1993; cited from earlier work
From the text: Studies of how NPY affects appetite have been conducted in several fish species (Narnaware et al., [2000]; Narnaware and Peter, [2001]) and the NPY system seems to influence food intake, although the orexigenic receptor subtypes have not been identified in the fish species studied. The receptors that in mammals are involved in inhibition of appetite have been known in zebrafish for several years and there have been some studies investigating how PYY can inhibit feeding. In mammals it seems like the main inhibitory action on appetite is performed by PYY3-36. This peptide is the result of cleava ...

Y4 = settings: PP, PYY and NPY compared, ref Lundell et al., 1995, 2002; cited from earlier work
From the text: Functional and evolutionary studies in mammals have shown that their Y4 receptor has evolved a partnership with pancreatic polypeptide (PP). It should be stressed that PYYb is not the teleost fish ortholog of PP, instead the latter is a tandem duplicate of PYY that probably took place early in the tetrapod lineage. […] Thus, the PP-Y4 preference seems to have evolved in mammals (Lundell et al., [1995], [2002]). One aim of the present study was to investigate ...

Y8a (Yc) = test: Competition binding with 125I-pPYY, zebrafish Y8a receptor (CHO-cells)
From the text: (§1) The zebrafish receptors have previously been cloned and expressed in cell lines by our laboratory. The zebrafish Y8a and Y8b receptors were inserted in a pTEJ-8 vector and stably expressed in CHO-cells (Ringvall et al., [1997]; Berglund et al., [2000]). Y7 has been inserted in a pCEP4 vector and semi-stably expressed in HEK 293-EBNA cells (Fredriksson et al., [2004]). The zebrafish Y4 receptor coding region was inserted in a pTEJ-8 vector (Starback et al., [1999]) and transient expressed in HEK cells. The cell-lines were grown according to the recommendations of the manufacturer. Ninety percent of the confluent cells were harvested and mixed with 100 μl 25 mM HEPES buffer (pH 7.4 and 2.5 mM CaCl2 and 1 mM MgCl2) and stored at −80°C.
(§2) Thawed aliquots of transfected cells were mixed with 1 ml 25 mM HEPES buffer (pH 7.4, 2.5 mM CaCl2, 1 mM MgCl2 and 0.2 g/l bacitracin). The samples were homogenized and another 1 ml buffer was added. ^125I-pPYY was used as radioligand in all experiments, radioligand, and unlabeled ligands (serial concentrations of zfNPY, zfPYYa, and zfPYYb respectively) and cells were mixed at the proportion 2:1:1 in 100 μl reactions followed by 2 h incubation. […] The radioactivity was measured using a Wallac 1450 Betaplate counter and the results were analyzed using Prism 4.0 software package (GraphPad, San Diego, CA, USA). […]

Y7 = test: Competition binding with 125I-pPYY, zebrafish Y7 receptor (HEK 293-EBNA cells); settings: for Ki: zebrafish Y7, semi-stably expressed in HEK 293-EBNA cells, competition with 125I-pPYY, 25 mM HEPES pH 7.4, 2.5 mM CaCl2, 1 mM MgCl2, bacitracin, 2 h incubation, mean ± SEM, n = 5 (zfNPY), 3 (zfPYYa), 5 (zfPYYb)
From the text: as §1
Thawed aliquots of transfected cells were mixed with 1 ml 25 mM HEPES buffer (pH 7.4, 2.5 mM CaCl2, 1 mM MgCl2 and 0.2 g/l bacitracin). The samples were homogenized and another 1 ml buffer was added. ^125I-pPYY was used as radioligand in all experiments, radioligand, and unlabeled ligands (serial concentrations of zfNPY, zfPYYa, and zfPYYb respectively) and cells were mixed at the proportion 2:1:1 in 100 μl reactions followed by 2 h incubation. The zebrafish NPY (zfNPY) and PYYa (zfPYYa) were synthesized at Eli Lilly and Company. The zebrafish PYYb (zfPYYb) was supplied in a crude form by GL Biochem Shanghai and purified as previously described (Fredriksson et al., [2006]). The incubation was terminated by rapid filtration through GF/C filters pre-soaked in 0.3% polyethyleneimin, using a TOMTEC cell harvester (Orange, CT, USA). The filters were washed with 50 mM Tris-HCl (pH 7.4) and dried at 50°C for 30 min. Filters were treated with MeltiLex A melt on scintillator sheets (Perkin Elmer, Boston, MA, USA). The radioactivity was measured using a Wallac 1450 Betaplate counter and the results were analyzed using Prism 4.0 software package (GraphPad, San Diego, CA, USA). The pKi values were compared to each other using One-Way ANOVA followed by Tukey-Kramer Multiple Comparison Test (GraphPad, San Diego, CA, USA).
The zebrafish receptors were expressed in mammalian cells and the membrane fraction was used for binding experiments. Competition binding experiments were performed using the three endogenous ligands NPY, PYYa and PYYb in competition with iodinated porcine PYY. The mature 36 amino acid PYYb peptide has fourteen differences compared to NPY and seven when compared with PYYa (see Figure 1). PYYa differs from NPY at nine positions. Thus, PYYb has clearly changed more than PYYa after duplication of their common ancestral gene.

Y8b (Yb) = test: Competition binding with 125I-pPYY, zebrafish Y8b receptor (CHO-cells); settings: stably expressed in CHO-cells, competition with 125I-pPYY, 25 mM HEPES pH 7.4, 2.5 mM CaCl2, 1 mM MgCl2, bacitracin, 2 h incubation, mean ± SEM, n = 4 (zfNPY), 3 (zfPYYa), 4 (zfPYYb)
From the text: as §1, §2

Y4(Ya) = test: Competition binding with 125I-pPYY, zebrafish Y4 receptor (HEK cells); settings: transiently expressed in HEK cells, competition with 125I-pPYY, 25 mM HEPES pH 7.4, 2.5 mM CaCl2, 1 mM MgCl2, bacitracin, 2 h incubation, mean ± SEM, n = 3 (zfNPY), 3 (zfPYYa), 3 (zfPYYb)
From the text: as §1, §2

Y2 [2] = settings: zebrafish Y2, ref Fredriksson et al., 2006, cited from earlier work
From the text: The neuropeptide Y (NPY) system influences numerous physiological functions including feeding behavior, endocrine regulation, and cardiovascular regulation. In jawed vertebrates it consists of 3–4 peptides and 4–7 receptors. Teleost fishes have unique duplicates of NPY and PYY as well as the Y8 receptor. In the zebrafish, the NPY system consists of the peptides NPYa, PYYa, and PYYb (NPYb appears to have been lost) and at least seven NPY receptors: Y1, Y2, Y2-2, Y4, Y7, Y8a, and Y8b. Previously PYYb binding has been reported for Y2 and Y2-2. To search for peptide-receptor preferences, we have i ... || The main objective of this study was to examine the affinity of PYYb for the Y4, Y7, Y8a, and Y8b receptors, and to compare it to the other two endogenous peptides, NPY and PYYa. […] The zebrafish Y7 receptor is 50% identical to zebrafish Y2 and PYYa has low affinity for both of these. This observation will be interesting to correlate with the physiological roles of the peptides and receptors in z ... || (+ 1 further places)

Substance: PYY3-36
- selectivity for Y2 over the other receptor subtypes (Y2 [1]): selectivity for Y2 over the other receptor subtypes

Substance: chicken PP: chicken pancreatic polypeptide (GPSQPTYPGDDAPVEDLIRFYNDLQQYLNVVTRHRY; ends and bridges not checked; UniProt P68248 26-61, looked up)
- affinity for chicken Y4 (Y4): equal affinities

Substance: zfNPY: endogenous zebrafish neuropeptide Y, synthesized at Eli Lilly and Company
- Ki (Y8a (Yc); zebrafish Y8a (Yc), stably expressed in CHO-cells, competition with 125I-pPYY, 25 mM HEPES pH 7.4, 2.5 mM CaCl2, 1 mM MgCl2, bacitracin, 2 h incubation, mean ± SEM, n = 7 (zfNPY), 6 (zfPYYa), 4 (zfPYYb)): 0.21 ± 0.07 nM
- Ki (Y7): 0.57 ± 0.16 nM
- Ki (Y8b (Yb)): 0.13 ± 0.04 nM
- Ki (Y4(Ya)): 0.033 ± 0.005 nM

Substance: zfPYYa: endogenous zebrafish PYYa, synthesized at Eli Lilly and Company
- affinity for Y8a compared with the other two peptides (Y8a (Yc); zebrafish Y8a, PYYa vs NPY and PYYb): slightly lower than the other two peptides
- Ki (Y7): 1.82 nM
- fold lower affinity for Y7 than NPY and PYYb (Y7; zebrafish Y7, PYYa vs NPY and PYYb): 3 fold
- affinity for Y7 compared with NPY and PYYb (Y7; zebrafish Y7, pKi compared by One-Way ANOVA, Tukey-Kramer): significantly lower affinity; also recorded: low affinity
- Ki (Y8b (Yb)): 0.25 ± 0.12 nM
- affinity for Y2 (Y2 [2]; previously reported): 3 nM
- preference of Y2 / affinity for Y2 (Y2 [2]): low affinity
- Ki (Y4(Ya)): 0.034 ± 0.009 nM

Reference: PMC3598007, “Interactions of zebrafish peptide YYb with the neuropeptide Y-family receptors Y4, Y7, Y8a, and Y8b” (Frontiers in Neuroscience, 2013)
